The values below are quoted from earlier work in patent US8476249B2, “Method of treating thrombocytopenia” (GlaxoSmithKline LLC, priority 2010, dated 2013).

For series [1] the following is noted: specifically in the portal vein system.
The conditions of series [2]: in vivo.

Take `CC1=NN(c2ccc(C)c(C)c2)C(=O)/C1=N\Nc1cccc(-c2cccc(C(=O)O)c2)c1O.NCCO.NCCO` [eltrombopag, 3′-[(2Z)-[1-(3,4-dimethylphenyl)-1,5-dihydro-3-methyl-5-oxo-4H-pyrazol-4-ylidene]hydrazino]-2′-hydroxy-[1,1′-biphenyl]-3-carboxylic acid bis-(monoethanolamine)]: the thrombotic events result in series [1] is reported as “associated with thrombotic events”. With enoxaparin, the “occurrence of portal vein thrombosis” value in series [2] is reported as “reducing the occurrence of portal vein thrombosis”.
